From patent US11214803B2, “Modulators of YAP1 expression” (Ionis Pharmaceuticals, Inc., priority 2019, dated 2022)
Strand notation (5' to 3'): a small letter for the sugar, then the base; units joined by * are phosphorothioate-linked, units joined directly phosphodiester-linked; [ ] holds rarer units or linkages, { } end groups; capitals alone tell only the bases. e = 2'-O-(2-methoxyethyl) (MOE); k = constrained ethyl (cEt); [5mC] = 5-methylcytosine; d = 2'-deoxy (DNA); m = 2'-O-methyl

test system: Yap1 mRNA; experiment: Antisense inhibition of human Yap1 in SNU-449 cells by modified oligonucleotides, single dose (Example 5, RTS36584); type: cell-based; details: Table 39; SNU-449 cells, 10,000 cells per well, free uptake, 2,000 nM oligonucleotide, approx. 48 hours; RTS36584; normalized to RIBOGREEN; Yap1 mRNA relative to untreated control
How it was run: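 Free uptake, 2,000 nM, ~48 h, SNU-449 at 10,000 cells/well. Read-out: qRT-PCR (RTS36584), RIBOGREEN-normalised, expressed as % UTC. Asterisk = oligo hits amplicon region.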

| Substance | YAP1 (% UTC) |
| --- | --- |
| 1198384 (kT*dA*dT*dT*dA*dG*dA*dG*dT*dA*dT*kG*eT*kG*eG*k[5mC]; antisense) [Compound 1198384] | 6 |
| 1198385 (kA*dT*dA*dT*dT*dA*dG*dA*dG*dT*dA*kT*eG*kT*eG*kG; antisense) [Compound 1198385] | 30 |
| 1198448 (kA*dG*dT*dA*dA*dG*dG*dT*dT*dT*d[5mC]*k[5mC]*e[5mC]*kA*eG*kA) [Compound 1198448] | 36 |

same assay, conditions: Table 40 (separate experiment); SNU-449 cells, 10,000 cells per well, free uptake, 2,000 nM oligonucleotide, approx. 48 hours; RTS36584; normalized to RIBOGREEN; Yap1 mRNA relative to untreated control

| Substance | YAP1 (% UTC) |
| --- | --- |
| 1198728 (kT*eA*kT*dT*dA*dG*dA*dG*dT*dA*dT*dG*eT*eG*kG*k[5mC]; antisense) [Compound 1198728] | 17 |

same assay, conditions: Table 41; SNU-449 cells, 10,000 cells per well, free uptake, 2,000 nM modified oligonucleotide, approximately 48 hours; RTS36584; normalized to RIBOGREEN; Yap1 mRNA relative to untreated control cells

| Substance | YAP1 (% UTC) |
| --- | --- |
| 1198791 (antisense kT*eT*kA*dA*dA*dG*dT*dG*dT*dA*dT*dG*eT*e[5mC]*kA*kG) [Compound 1198791] | 39 |
| 1198690 (antisense kT*kA*dA*dT*dA*dT*dT*dG*d[5mC]*dA*dA*dT*k[5mC]*eT*kG*eT) [Compound 1198690] | 64 |
| 1198676 (antisense kT*k[5mC]*dA*dG*dA*dT*dT*dT*dA*dG*dG*dA*kT*eG*k[5mC]*eA) [Compound 1198676] | 52 |
| 1198655 (k[5mC]*kA*d[5mC]*dT*dT*dT*dT*dA*d[5mC]*dA*dT*dT*kA*eG*kG*eA; antisense) [Compound 1198655] | 30 |
| 1198733 (kG*eG*kT*dA*dT*dA*dA*d[5mC]*dT*dG*dG*dG*e[5mC]*eA*kA*kA; antisense) [Compound 1198733] | 47 |
| 1198642 (kT*kA*dT*dT*dA*dG*dA*dG*dT*dA*dT*dG*kT*eG*kG*e[5mC]; antisense) [Compound 1198642] | 19 |

same assay, conditions: Table 42 (separate experiment); SNU-449 cells, 10,000 cells per well, free uptake, 2,000 nM modified oligonucleotide, approximately 48 hours; RTS36584; normalized to RIBOGREEN; Yap1 mRNA relative to untreated control cells

| Substance | YAP1 (% UTC) |
| --- | --- |
| 1198711 (kG*kA*d[5mC]*dT*dA*dA*dG*dT*dA*dA*dG*dG*kT*eT*kT*e[5mC]; antisense) [Compound 1198711] | 60 |
| 1198647 (kG*kG*dT*dA*dT*dA*dA*d[5mC]*dT*dG*dG*dG*k[5mC]*eA*kA*eA) [Compound 1198647] | 47 |

same assay, conditions: Table 43 experiment; SNU-449 cells, 10,000 cells per well, free uptake, 2,000 nM, approximately 48 hours; RTS36584; Yap1 mRNA normalized to RIBOGREEN, relative to untreated control cells

| Substance | YAP1 (% UTC) |
| --- | --- |
| 1198263 (kA*kT*dG*dT*dA*dA*dT*dA*dT*dT*dG*e[5mC]*eA*eA*kT*k[5mC]; antisense) [Compound 1198263] | 114 |
| 1198278 (kT*kA*dA*dG*dT*dA*dA*dG*dG*dT*dT*eT*e[5mC]*e[5mC]*k[5mC]*kA; antisense) [Compound 1198278] | 43 |
| 1198466 (antisense kA*kG*dA*dG*dT*dA*dT*dG*dT*dG*dG*e[5mC]*kA*eA*kT*eA) [Compound 1198466] | 12 |

same assay, conditions: Table 44 experiment; SNU-449 cells, 10,000 cells per well, free uptake, 2,000 nM, approximately 48 hours; RTS36584; Yap1 mRNA normalized to RIBOGREEN, relative to untreated control cells

| Substance | YAP1 (% UTC) |
| --- | --- |
| 1198490 (antisense kT*kT*dT*dG*dG*dA*dA*dG*dA*dT*d[5mC]*eT*kG*eA*kA*eA) [Compound 1198490] | 53 |
| 1198540 (antisense kA*kG*dA*d[5mC]*dT*dA*dA*dG*dT*dA*dA*eG*kG*eT*kT*eT) [Compound 1198540] | 51 |

same assay, conditions: Table 45; Yap1 mRNA as percent of untreated control, SNU-449 cells, single dose

| Substance | YAP1 (% UTC) |
| --- | --- |
| 1198948 (kG*kA*d[5mC]*dA*dA*d[5mC]*dT*d[5mC]*dT*dT*dA*kT*dA*kT*dG*kG; antisense) [Compound 1198948] | 96 |
| 1198911 (kG*kA*dG*dG*dT*dA*dT*dA*dA*d[5mC]*dT*kG*dG*kG*d[5mC]*kA; antisense) [Compound 1198911] | 26 |
| 1198975 (kT*kT*dA*dG*dA*d[5mC]*dT*dA*dA*dG*dT*kA*dA*kG*dG*kT; antisense) [Compound 1198975] | 52 |
| 1198943 (kT*k[5mC]*dT*dT*dA*dT*dA*dT*dG*dG*dT*kT*dT*kT*dG*kT; antisense) [Compound 1198943] | 31 |
| 1198950 (kA*kT*dA*dT*dT*dG*d[5mC]*dA*dA*dT*d[5mC]*kT*dG*kT*d[5mC]*kT; antisense) [Compound 1198950] | 85 |

same assay, conditions: Table 46; Yap1 mRNA as percent of untreated control, SNU-449 cells, single dose

| Substance | YAP1 (% UT) |
| --- | --- |
| 1198804 (antisense kT*kG*dT*d[5mC]*dT*d[5mC]*dA*dT*dG*d[5mC]*d[5mC]*kT*eT*kA*eT*kA) [Compound 1198804] | 22 |
| 1198844 (kA*kT*dA*dG*dT*dG*d[5mC]*dT*dT*dT*dG*kG*eA*kA*eG*kA; antisense) [Compound 1198844] | 56 |

same assay, conditions: Table 48; Yap1 mRNA level relative to untreated control; modified oligonucleotides targeting SEQ ID NO.: 1 and 2

| Substance | YAP1 (% UT) |
| --- | --- |
| 1198290 (kT*kG*kG*dA*dA*dA*dT*dT*dG*dT*d[5mC]*dT*k[5mC]*eA*kT*eG; antisense) [Compound 1198290] | 15 |
| 1197204 (antisense k[5mC]*kA*kA*d[5mC]*dT*d[5mC]*dT*dT*dA*dT*dA*dT*dG*kG*kT*kT) [Compound 1197204] | 89 |
| 1197205 (antisense kG*kA*k[5mC]*dA*dA*d[5mC]*dT*d[5mC]*dT*dT*dA*dT*dA*kT*kG*kG) [Compound 1197205] | 67 |
| 1198329 (kG*kA*kT*dT*dT*dA*dG*dG*dA*dT*dG*d[5mC]*kA*eT*kG*eG; antisense) [Compound 1198329] | 36 |
| 1197215 (antisense kA*kA*kG*dT*dG*dT*dA*dT*dG*dT*d[5mC]*dA*dG*kA*kA*kG) [Compound 1197215] | 13 |

same assay, conditions: Table 49; Yap1 mRNA level relative to untreated control; modified oligonucleotides targeting SEQ ID NO.: 1 and 2

| Substance | YAP1 (% UT) |
| --- | --- |
| 1198358 (kT*kT*kT*dA*dA*dA*dG*dT*dG*dT*dA*dT*kG*eT*k[5mC]*eA; antisense) [Compound 1198358] | 15 |
| 1198339 (kA*k[5mC]*kT*d[5mC]*dT*dT*dA*dT*dA*dT*dG*dG*kT*eT*kT*eT; antisense) [Compound 1198339] | 25 |
| 1198354 (kA*kA*kG*dT*dG*dT*dA*dT*dG*dT*d[5mC]*dA*kG*eA*kA*eG; antisense) [Compound 1198354] | 6 |
| 1198362 (kA*kG*kT*dA*dA*dG*dG*dT*dT*dT*d[5mC]*d[5mC]*k[5mC]*eA*kG*eA; antisense) [Compound 1198362] | 24 |
| 1198557 (antisense kA*kT*kA*dT*dT*dA*dG*dA*dG*dT*dA*dT*kG*kT*kG*eG) [Compound 1198557] | 16 |

same assay, conditions: Table 50; Yap1 mRNA remaining as percent of untreated control (UT), SNU-449 cells, single dose

| Substance | YAP1 (% UT) |
| --- | --- |
| 1197293 (k[5mC]*kA*k[5mC]*dT*mU*dT*dT*dA*d[5mC]*dA*dT*dT*dA*kG*kG*kA; antisense) [Compound 1197293] | 94 |
| 1197246 (antisense kA*kG*k[5mC]*dA*mC*dT*dT*dT*dT*dA*d[5mC]*dA*dT*kT*kA*kG) [Compound 1197246] | 33 |
| 1198609 (antisense kT*kT*kT*dA*dT*dG*dT*dA*dA*dT*dA*dT*kT*kG*k[5mC]*eA) [Compound 1198609] | 52 |

same assay, conditions: Table 51; Yap1 mRNA remaining as percent of untreated control (UT), SNU-449 cells, single dose

| Substance | YAP1 (% UT) |
| --- | --- |
| 1197304 (k[5mC]*kT*k[5mC]*dT*mU*dA*dT*dA*dT*dG*dG*dT*dT*kT*kT*kG; antisense) [Compound 1197304] | 45 |
| 1197309 (kG*kT*kA*dA*mU*dA*dT*dT*dG*d[5mC]*dA*dA*dT*k[5mC]*kT*kG; antisense) [Compound 1197309] | 11 |
| 1197298 (kA*kT*kA*dG*mU*dG*d[5mC]*dT*dT*dT*dG*dG*dA*kA*kG*kA) [Compound 1197298] | 46 |
| 1197314 (kA*kA*kA*dG*mU*dG*dT*dA*dT*dG*dT*d[5mC]*dA*kG*kA*kA; antisense) [Compound 1197314] | 22 |

same assay, conditions: Table 52; Yap1 mRNA, modified oligonucleotides targeting SEQ ID NO: 1 and 2

| Substance | YAP1 (% UT) |
| --- | --- |
| 1200792 (kA*kT*kA*dT*dG*mG*dA*dA*dA*dT*dT*dG*dT*k[5mC]*kT*k[5mC]; antisense) [Compound 1200792] | 52 |
| 1200870 (kA*k[5mC]*kT*dA*dA*mG*dT*dA*dA*dG*dG*dT*dT*kT*k[5mC]*k[5mC]; antisense) [Compound 1200870] | 73 |
| 1200813 (k[5mC]*kT*kT*dT*dT*mA*d[5mC]*dA*dT*dT*dA*dG*dG*kA*kA*k[5mC]; antisense) [Compound 1200813] | 58 |
| 1200819 (kT*kT*kA*dA*dG*mC*dA*d[5mC]*dT*dT*dT*dT*dA*k[5mC]*kA*kT; antisense) [Compound 1200819] | 101 |
| 1200872 (kA*kG*kA*d[5mC]*dT*mA*dA*dG*dT*dA*dA*dG*dG*kT*kT*kT; antisense) [Compound 1200872] | 98 |
| 1200869 (k[5mC]*kT*kA*dA*dG*mU*dA*dA*dG*dG*dT*dT*dT*k[5mC]*k[5mC]*k[5mC]; antisense) [Compound 1200869] | 25 |

same assay, conditions: Yap1 mRNA, percent of untreated control; modified oligonucleotides targeting SEQ ID NO: 1 and 2; Table 47

| Substance | YAP1 (% UT) |
| --- | --- |
| 1197207 (antisense kA*kA*kT*dA*dT*dT*dG*d[5mC]*dA*dA*dT*d[5mC]*dT*kG*kT*k[5mC]) [Compound 1197207] | 51 |
| 1197186 (antisense kT*kT*kA*dA*dG*d[5mC]*dA*d[5mC]*dT*dT*dT*dT*dA*k[5mC]*kA*kT) [Compound 1197186] | 65 |
